Measured values taken from ChEMBL document CHEMBL4706617, “Pyrimido[1,2-b]indazole derivatives: Selective inhibitors of human monoamine oxidase B with neuroprotective activity” (Eur J Med Chem, 2021).
Calls of active or inactive are those of the source. The rule behind the calls is not given here.

Legend:
[1] = molecular target: T1, Amine oxidase [flavin-containing] A (Homo sapiens, UniProt P21397); test: Inhibition of recombinant human MAO-A expressed in baculovirus infected BTI-TN-5B1-4 insect cells using p-tyramine as substrate preincubated for 15 mins followed by substrate addition and measured over 20 mins by horse-radish peroxidase/Amplex Red coupled fluorimetric analysis
T1 sequence (P21397 whole entry): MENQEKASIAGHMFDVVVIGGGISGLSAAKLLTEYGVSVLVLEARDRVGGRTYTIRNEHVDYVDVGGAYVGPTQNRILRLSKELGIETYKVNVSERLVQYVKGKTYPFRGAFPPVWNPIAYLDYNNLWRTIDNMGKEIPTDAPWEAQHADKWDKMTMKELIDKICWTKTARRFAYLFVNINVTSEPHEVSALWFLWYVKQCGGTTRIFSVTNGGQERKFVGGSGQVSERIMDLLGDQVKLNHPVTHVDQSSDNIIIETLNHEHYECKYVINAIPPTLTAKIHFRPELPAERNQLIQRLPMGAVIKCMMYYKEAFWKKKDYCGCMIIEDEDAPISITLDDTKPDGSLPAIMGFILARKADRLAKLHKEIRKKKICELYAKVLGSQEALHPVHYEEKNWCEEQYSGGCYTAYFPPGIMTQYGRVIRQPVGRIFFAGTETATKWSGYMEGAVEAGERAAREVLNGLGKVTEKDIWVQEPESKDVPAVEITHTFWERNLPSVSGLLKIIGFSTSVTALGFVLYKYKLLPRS

[2] = molecular target: T2, Amine oxidase [flavin-containing] B (Homo sapiens, UniProt P27338); test: biochemical; assay type: cell-based, BTI-TN-5B1-4
T2 sequence (P27338 whole entry): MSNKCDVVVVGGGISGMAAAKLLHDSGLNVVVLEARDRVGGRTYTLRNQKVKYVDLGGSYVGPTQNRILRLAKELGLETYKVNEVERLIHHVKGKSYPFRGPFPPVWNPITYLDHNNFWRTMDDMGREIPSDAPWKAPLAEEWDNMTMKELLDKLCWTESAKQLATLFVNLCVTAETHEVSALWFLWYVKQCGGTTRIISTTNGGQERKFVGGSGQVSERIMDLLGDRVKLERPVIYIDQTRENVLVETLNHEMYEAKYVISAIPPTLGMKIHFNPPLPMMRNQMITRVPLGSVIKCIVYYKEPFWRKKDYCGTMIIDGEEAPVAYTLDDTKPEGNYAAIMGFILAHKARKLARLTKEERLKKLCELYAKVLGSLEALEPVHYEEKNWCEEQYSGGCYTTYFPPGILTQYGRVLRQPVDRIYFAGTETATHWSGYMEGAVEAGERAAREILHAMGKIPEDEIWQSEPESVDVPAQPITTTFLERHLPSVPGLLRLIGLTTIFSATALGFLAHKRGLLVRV
Description: Inhibition of recombinant human MAO-B expressed in baculovirus infected BTI-TN-5B1-4 insect cells using p-tyramine as substrate preincubated for 15 mins followed by substrate addition and measured over 20 mins by horse-radish peroxidase/Amplex Red coupled fluorimetric analysis

[3] = test system: SH-SY5Y; test: Cytotoxicity against human SH-SY5Y cells assessed as reduction in metabolic activity up to 20 uM incubated for 24 hrs by MTS assay; assay type: ADME, cell-based
[4] = test system: SH-SY5Y; test: Cytotoxicity against human SH-SY5Y cells assessed as reduction in metabolic activity at 50 to 100 uM incubated for 24 hrs by MTS assay; assay type: ADME, cell-based; details: dose 50-100 µM
[5] = molecular target: T2, Amine oxidase [flavin-containing] B; test: Competitive inhibition of recombinant human MAO-B expressed in baculovirus infected BTI-TN-5B1-4 insect cells using varying level of p-tyramine as substrate by Lineweaver-Burk plot analysis
[6] = Cytotoxicity against human SH-SY5Y cells assessed as metabolic activity up to 100 uM incubated for 24 hrs by MTS assay relative to control; assay type: ADME, cell-based; details: read-out: Activity
[7] = test system: SH-SY5Y; test: Neuroprotective activity against 6-OHDA-induced cell death in human SH-SY5Y cells at 1 uM preincubated for 1 hr followed by 6-OHDA stimulation for 24 hrs by 7AAD staining based flow cytometric analysis; assay type: functional; details: time 25.0 hrs

Compound	IC50 [1] [µM]	IC50 [2] [µM]	Activity [3]	Activity [4]	Ki [5] [µM]	viability at 24 h [6] [%]	Activity [7]
COc1cccc(-c2cnc3c4cccnc4nn3c2)c1	> 100	0.397	–	–	–	–	–
COc1ccc(-c2cnc3c4ccccc4nn3c2)cc1	> 100	0.215	Non-Toxic	Toxic	–	–	–
COc1ccc(-c2cnc3c4c(F)cccc4nn3c2)cc1	> 100	0.062	–	–	0.0337	> 85	–
COc1ccc2c3c([nH]c2c1)C(C)=NCC3 [HARMALINE]	0.0329	> 100	–	–	–	–	–
Brc1cnc2c3ccccc3nn2c1	> 100	> 100	–	–	–	–	–
COc1ccc(-c2cnc3c4ncccc4nn3c2)cc1	> 100	0.236	Non-Toxic	Toxic	0.107	–	Active
Fc1cccc2nn3cc(Br)cnc3c12	> 100	> 100	–	–	–	–	–
Brc1ccc2nn3cc(Br)cnc3c2c1	> 100	> 100	–	–	–	–	–
COc1ccc(-c2cnc3c4cccnc4nn3c2)cc1	> 100	0.818	–	–	–	–	–
C(=C\c1cnc2c3cccnc3nn2c1)/c1ccccc1	> 100	0.837	–	–	–	–	–
FC(F)(F)c1ccc2c(c1)nn1cc(Br)cnc21	> 100	1.17	–	–	–	–	–
CC(=O)c1ccc(-c2cnc3c4cccnc4nn3c2)cc1	> 100	0.13	Non-Toxic	–	0.0765	> 85	Active
O=[N+]([O-])c1ccc2nn3cc(Br)cnc3c2c1	> 100	> 100	–	–	–	–	–
Brc1cnc2c3cccnc3nn2c1	> 100	> 100	–	–	–	–	–
CCOC(=O)c1ccc(-c2cnc3c4cccnc4nn3c2)cc1	> 100	0.822	–	–	–	–	–
c1cnc2c(c1)nn1cc(-c3ccsc3)cnc21	> 100	14.8	–	–	–	–	–

Compound	IC50 [1] [µM]	IC50 [2] [µM]	Activity [3]	Activity [4]	Ki [5] [µM]	viability at 24 h [6] [%]	Activity [7]
FC(F)(F)c1cccc(-c2cnc3c4cccnc4nn3c2)c1	> 100	1.02	–	–	–	–	–
CS(=O)(=O)c1ccc(-c2cnc3c4cccnc4nn3c2)cc1	> 100	5.7	–	–	–	–	–
Fc1ncccc1-c1cnc2c3ccccc3nn2c1	21.1	0.648	–	–	–	–	–
COc1ccc(-c2cnc3c4nccnc4nn3c2)cc1	> 100	1.25	–	–	–	–	–
Brc1cnc2c3ncccc3nn2c1	> 100	> 100	–	–	–	–	–
c1csc(-c2cnc3c4cccnc4nn3c2)c1	> 100	4.48	–	–	–	–	–
Brc1cnc2c3nccnc3nn2c1	> 100	> 100	–	–	–	–	–
COc1ccc(-c2cnc3c4c(Cl)cccc4nn3c2)cc1	> 100	0.132	–	Toxic	–	–	–
Brc1ccc2c(c1)nn1cc(Br)cnc21	> 100	> 100	–	–	–	–	–
CSc1ccc(-c2cnc3c4ccccc4nn3c2)cc1	> 100	0.065	Non-Toxic	–	0.0247	> 85	–
c1ccc(-c2cnc3c4ncccc4nn3c2)cc1	> 100	88.3	–	–	–	–	–
CCOC(=O)c1ccccc1-c1cnc2c3nccnc3nn2c1	> 100	> 100	–	–	–	–	–
COc1ccccc1-c1cnc2c3cccnc3nn2c1	> 100	3.79	–	–	–	–	–
Clc1cccc2nn3cc(Br)cnc3c12	> 100	> 100	–	–	–	–	–
Fc1ccc(-c2cnc3c4cccnc4nn3c2)cn1	> 100	> 100	–	–	–	–	–
